According to PubChem BioAssay AID602166 (The Scripps Research Institute Molecular Screening Center, 2012):
Activity calls are given as the source filed them. The rule behind the calls is not given here.

Target: Nuclear receptor coactivator 3 (Homo sapiens) (UniProt Q9Y6Q9)
Assay: NCOA3 reporter inhibition potency – cell-based, luminescence, dose response (AID 602166);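 note: potency for reduction of SRC3 reporter signal so compounds are inhibitors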
Settings: SRC3 luciferase reporter cell assay

Chain of Nuclear receptor coactivator 3 (Homo sapiens) (Q9Y6Q9 whole entry, looked up): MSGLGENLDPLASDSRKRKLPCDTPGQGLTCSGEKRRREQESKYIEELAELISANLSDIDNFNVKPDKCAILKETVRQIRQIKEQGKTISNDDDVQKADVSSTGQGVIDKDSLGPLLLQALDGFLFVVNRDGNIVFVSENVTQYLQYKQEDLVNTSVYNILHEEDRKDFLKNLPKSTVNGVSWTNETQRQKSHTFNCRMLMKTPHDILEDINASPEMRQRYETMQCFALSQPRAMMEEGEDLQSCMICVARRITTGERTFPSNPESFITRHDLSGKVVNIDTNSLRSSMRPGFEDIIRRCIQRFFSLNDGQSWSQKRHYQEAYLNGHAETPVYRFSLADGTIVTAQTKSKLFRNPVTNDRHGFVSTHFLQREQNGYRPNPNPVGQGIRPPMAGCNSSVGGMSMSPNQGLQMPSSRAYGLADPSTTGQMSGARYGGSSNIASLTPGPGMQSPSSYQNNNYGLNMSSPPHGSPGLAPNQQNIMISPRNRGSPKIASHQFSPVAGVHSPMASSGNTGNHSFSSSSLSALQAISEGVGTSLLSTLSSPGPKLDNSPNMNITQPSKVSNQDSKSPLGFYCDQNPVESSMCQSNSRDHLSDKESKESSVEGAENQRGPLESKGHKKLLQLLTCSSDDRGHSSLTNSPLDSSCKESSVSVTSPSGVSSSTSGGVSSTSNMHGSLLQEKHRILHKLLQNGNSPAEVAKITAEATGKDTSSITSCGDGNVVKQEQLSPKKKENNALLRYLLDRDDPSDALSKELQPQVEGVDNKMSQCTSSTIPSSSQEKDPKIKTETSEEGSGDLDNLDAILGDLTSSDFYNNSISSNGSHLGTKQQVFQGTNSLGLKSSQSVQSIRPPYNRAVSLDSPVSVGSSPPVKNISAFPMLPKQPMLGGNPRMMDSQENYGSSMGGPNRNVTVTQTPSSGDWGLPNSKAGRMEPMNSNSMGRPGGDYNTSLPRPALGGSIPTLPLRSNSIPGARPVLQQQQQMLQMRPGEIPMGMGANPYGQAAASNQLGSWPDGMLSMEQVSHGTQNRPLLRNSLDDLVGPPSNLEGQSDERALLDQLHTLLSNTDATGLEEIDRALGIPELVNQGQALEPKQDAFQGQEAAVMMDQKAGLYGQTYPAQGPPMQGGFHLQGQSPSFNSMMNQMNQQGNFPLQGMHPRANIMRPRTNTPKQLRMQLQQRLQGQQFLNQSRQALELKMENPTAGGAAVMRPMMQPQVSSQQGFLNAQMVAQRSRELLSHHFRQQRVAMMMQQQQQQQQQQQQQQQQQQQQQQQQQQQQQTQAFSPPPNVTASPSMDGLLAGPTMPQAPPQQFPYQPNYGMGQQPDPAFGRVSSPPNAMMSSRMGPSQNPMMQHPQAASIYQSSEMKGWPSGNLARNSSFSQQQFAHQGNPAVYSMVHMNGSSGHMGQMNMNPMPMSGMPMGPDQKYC

SMILES	IC50
O=C(N/N=C(\c1ccccc1)c1ccccn1)c1ccccc1Cl	inactive
COc1ccc(OC)c(Cc2cnc3nc(N)nc(N)c3c2C)c1	7.45 µM
COC(=O)c1cc(S(=O)(=O)NCCc2ccc(Cl)cc2)c[nH]1	5.72 µM
CCOc1cc(/C=C2\CCC/C(=C\c3cc(Cl)c(O)c(OCC)c3)C2=O)cc(Cl)c1O	> 35.8 µM (inactive)
C=CCOc1ccc(/C=C2\SC(=S)N(CCC(=O)O)C2=O)cc1	inactive
Fc1ccc(CSc2nnc(-c3ccncc3)o2)cc1	2.44 µM
O=C(Nc1cccnc1)c1ccc(C(=O)Nc2cccnc2)cc1	> 35.9 µM (inactive)
O=C(NC1CCCCC1)C(c1cccnc1)N(C(=O)CCl)c1cccc(Cl)c1 (stereo not drawn)	3.1 µM
N#Cc1c2ccc(O)cc2n2ccccc12	3.41 µM
c1ccc2c(c1)Nc1ccncc1S2	inactive
Cc1ccc2nc(C(F)(F)F)c(C#N)c(N)c2c1	inactive
COc1cc2[nH]c3c(Cl)ncnc3c2cc1OC	> 35.9 µM (inactive)
Cc1ccc(N=Nc2ccc3ccccc3c2O)cc1	> 35.9 µM (inactive)
C#CC(=O)N(c1cc(OC)ccc1OC)C(C(=O)NC1CCCC1)c1cccs1 (stereo not drawn)	> 35.9 µM (inactive)
Cc1ccc(-n2c(Cl)c(Cl)nc(Cl)c2=O)cc1	inactive
COc1cc(/C=C(/C(=O)c2cccs2)c2nc3ccccc3[nH]2)cc(OC)c1O	> 35.9 µM (inactive)
COc1cc(/C=C2\CC(C(C)(C)C)C/C(=C\c3cc(OC)c(OC)c(OC)c3)C2=O)cc(OC)c1OC (stereo not drawn)	> 35.9 µM (inactive)
COc1ccc(OC)c(N/C=C/C(=O)c2ccccc2)c1	inactive
O=C(N/N=C/c1cc(Br)c(Br)s1)c1ccncc1	8.67 µM
O=C(CCl)N(c1ccccc1)C1CCS(=O)(=O)C1 (stereo not drawn)	6.92 µM
COc1cc(/C=N/NC(=Nc2ccc(C)cc2)c2nc3ccccc3s2)ccc1O	> 35.9 µM (inactive)
COC(CN(C(=O)CCl)C(C(=O)NC1CCCCC1)c1ccccc1C)OC (stereo not drawn)	6.18 µM

SMILES	IC50
CCN(c1cccc(C)c1)c1ncnc2nc[nH]c12	inactive
CC(=O)N1CCN(c2ncnc3ccccc23)CC1	8.94 µM
COc1ccccc1C(=O)N(CCC1CCCN1C)c1nc2ccccc2s1 (stereo not drawn)	> 35.9 µM (inactive)
C(=Cc1cnc2ccccc2n1)c1ccc2c(c1)OCO2	inactive
Cc1ccc2nc(-c3ccncc3)c(NC3CCCC3)n2c1	inactive
COc1ccc(/C=C2\CN(Cc3ccccc3)C/C(=C\c3ccc(OC)c(O)c3)C2=O)cc1O	> 35.9 µM (inactive)
O=C(Nc1nc2ccccc2s1)C1c2ccccc2Oc2ccccc21	7.97 µM
CCC(=O)N1CCN(c2ccnc3cc(Cl)ccc23)CC1	8.04 µM
O=S(=O)(c1ccc(F)cc1)c1snnc1-c1ccccc1	inactive
CCCCN1C=CC(=C2C(=O)c3ccccc3C2=O)C=C1	4.47 µM
Cc1nc2c(-c3ccc(Cl)cc3)cnn2c(N)c1-c1ccc(F)cc1	> 35.9 µM (inactive)
COc1cc2c(cc1OC)C(C)N(C(=O)c1cccc([N+](=O)[O-])c1)CC2 (stereo not drawn)	7.21 µM
NC(=S)NN=Cc1nccc2c(N)cccc12	2.42 µM
CC(C)N(c1ccccc1)c1ccc(NC(=O)CCl)cc1	inactive
CC1CCN(C2=NC(=O)/C(=C/c3ccccc3F)S2)CC1	> 35.9 µM (inactive)
Cc1ccc(/C=C2/SC(=S)N(CCCC(=O)Nc3ccc(O)cc3)C2=O)cc1	6.45 µM
O=C(NCc1ccccc1)c1c(Cl)nc(Cl)c(Cl)c1Cl	inactive
COc1cc(C(=O)OCC(=O)Nc2sccc2C(N)=O)cc(OC)c1OC	> 35.9 µM (inactive)
C(=N\Nc1ccc2ccccc2n1)/c1ccc2c(c1)OCCO2	inactive
Oc1ccc(C=NNc2ccccn2)c(O)c1	inactive
Cc1cccc(NC(=O)c2cc(Cl)ccc2[N+](=O)[O-])c1	5.61 µM
COC(=O)c1c(C)n(-c2ccc(OC)cc2)c2ccc(O)cc12	3.99 µM

SMILES	IC50
COc1cc2oc(=O)cc(-c3ccc(-c4ccc(CO)cc4)cc3)c2c(OC)c1OC	4.57 µM
CS(=O)(=O)c1ccc(Sc2nc3ccccc3s2)c([N+](=O)[O-])c1	> 35.9 µM (inactive)
CCN(C(C)=O)c1cnc(C=NNC(N)=S)c2ccccc12	4.67 µM
Nc1ncnc(NCc2ccccc2)c1[N+](=O)[O-]	5.6 µM
CN(Cc1cnc2nc(N)nc(N)c2n1)c1ccc(C(=O)NC(CCC(=O)O)C(=O)O)cc1 (stereo not drawn)	> 35.9 µM (inactive)
C=CCn1c(O)c(C(C)=NCc2cc(OC)cc(OC)c2)c(=O)[nH]c1=O	7.73 µM
CC(=O)c1cccc(NC(=O)Nc2ccc3c(c2)N(C)C(=O)CS3)c1	> 12 µM (inactive)
O=c1[nH]c2ccccc2n1C1CCN(C(c2ccccc2)c2nnnn2Cc2ccccc2)CC1 (stereo not drawn)	inactive
CC(C)(C)n1ncc2c(=O)n(CC(=O)OCc3ccccc3)cnc21	> 35.9 µM (inactive)
CCCNC(=O)c1nnsc1S(=O)(=O)c1ccc(Cl)cc1	8.04 µM
Cc1cc(C(=O)CN2C(=O)c3ccccc3S2(=O)=O)c(C)n1C(C)C	inactive
CC[C@@]1(O)C(=O)OCc2c1cc1n(c2=O)Cc2cc3c(NC(=O)CN)cccc3nc2-1	1.75 µM
O=C(OCc1ccccc1)c1ccc(NCc2cc(O)ccc2O)cc1	inactive
CN1C(=O)C2(C(C#N)=C(N)N(c3cc(Cl)cc(Cl)c3)C3=C2C(=O)CC(C)(C)C3)c2ccccc21 (stereo not drawn)	4.34 µM
CC1(C)N=C(N)N=C(N)N1CCCCc1ccccc1	3.98 µM
Clc1ccc(-c2csc3ncnc(NCCN4CCOCC4)c23)cc1	8.15 µM
CCn1c2ccccc2c2cnc(N=CN(C)C)c(C#N)c21	4.94 µM
Cc1ccc(OCC(=O)c2cc(C)n(-c3ccccc3)c2C)c([N+](=O)[O-])n1	inactive
COc1ccccc1N(C(=O)CCl)c1cn(C(C)=O)c2ccccc12	8.1 µM
O=c1[nH]c(O)c(N=Nc2ccc3c(c2)OCCO3)c(=O)[nH]1	> 35.9 µM (inactive)
O=c1[nH]c2ccccc2n1C1CCN(C(c2cccc3ccccc23)c2nnnn2-c2ccc3c(c2)OCCO3)CC1 (stereo not drawn)	inactive
Nc1ncccc1C(=O)OCC(=O)N1CCN(S(=O)(=O)c2ccc(Cl)cc2)CC1	7.74 µM

SMILES	IC50
CCCC(=O)NC(c1ccc2c(c1)OCO2)c1cc(Cl)c2cccnc2c1O (stereo not drawn)	7.71 µM
COc1cccc(CNc2ncnc3ccc(-c4c(C)noc4C)cc23)c1	inactive
CCOc1ccccc1-n1c(SCC(=O)Nc2ccccc2C(=O)O)nc2ccccc2c1=O	> 35.9 µM (inactive)
CN(Cc1cnc2nc(N)nc(N)c2n1)c1ccc(C(=O)N[C@@H](CCC(=O)O)C(=O)O)cc1	> 35.9 µM (inactive)
CC(C)(C)C(=O)Nc1ccc(N=Nc2ccccc2)cc1	> 35.9 µM (inactive)
Nc1nc(CCl)nc(Nc2cccc3ccccc23)n1	inactive
Cc1nc([N+](=O)[O-])c(Sc2nc3ccccc3n2C)n1Cc1ccccc1	inactive
NS(=O)(=O)c1ccc(Sc2nc3ccccc3s2)c([N+](=O)[O-])c1	inactive
COc1cccc2c1C(=N)c1c(O)c3c(c(O)c1C2=O)CC(O)(C(C)=O)CC3OC1CC(N)C(O)C(C)O1 (stereo not drawn)	> 35.9 µM (inactive)
CCCC(=O)NC(c1ccc(Cl)cc1)c1ccc2cccnc2c1O (stereo not drawn)	4.7 µM
COc1ccc(CCNC(=O)c2nnn(-c3ccc4c(c3)OCCO4)c2N)cc1OC	> 35.9 µM (inactive)
CCOc1cc(C(N)=O)cc(Br)c1OC	5.79 µM
COc1ccc(-n2cnc3c(sc4nccc(N(C)C)c43)c2=O)cc1	8.19 µM
Cc1sc2ncnc(N3CCC(C(=O)Nc4ccccc4C(C)(C)C)CC3)c2c1C	5.75 µM
COc1cc([C@@H]2c3cc4c(cc3[C@@H](O[C@@H]3O[C@@H]5CO[C@@H](C)O[C@H]5[C@H](O)[C@H]3O)[C@H]3COC(=O)[C@H]23)OCO4)cc(OC)c1O	2.48 µM
NC(=O)c1cc(Sc2ccccc2)nc2ccccc12	3.53 µM
Nc1ccc(Oc2ccccc2-c2ccccc2)cc1	inactive
S=C(Nc1ccccc1)Nc1ccc(OCc2ccc(Cl)cc2Cl)cc1	4.36 µM
COc1cc(C2c3cc4c(cc3C(OC3OC5COC(c6cccs6)OC5C(O)C3O)C3COC(=O)C23)OCO4)cc(OC)c1O (stereo not drawn)	0.093 µM
O=[N+]([O-])c1ccc(N(CCO)CCO)c2c1no[n+]2[O-]	7.24 µM
COc1ccc(C(C(=O)NC2CCCCC2)N(C(=O)CCl)c2ccc(OC)cc2)cc1 (stereo not drawn)	7.79 µM
O=c1[nH]c2ccccc2n1C1CCN(C(c2cc3ccccc3o2)c2nnnn2Cc2ccccc2)CC1 (stereo not drawn)	inactive

SMILES	IC50
Cc1cccc2sc(NNC(=O)c3ccc(S(=O)(=O)N4CC(C)CC(C)C4)cc3)nc12 (stereo not drawn)	5.91 µM
CN(C)/C=C/C(=O)c1ccc2noc(-c3ccccc3)c2c1	3.72 µM
C(=NNc1ccc2ccccc2n1)c1ccccn1	inactive
COc1cccc(/C=N/Nc2ccc([N+](=O)[O-])cn2)c1O	inactive
O=C(COc1ccc(Cl)cc1)Nc1ccc(C(=O)NCc2cccnc2)cc1	inactive
Cc1ccc(C2=NN(C(=O)CCl)C(c3cccs3)C2)o1 (stereo not drawn)	inactive
CCCc1c(C)nc2ccccc2c1SCCC#N	7.93 µM
COc1cccc(/C=N/Nc2cc(-n3nc(C)cc3-c3ccccc3)ncn2)c1O	4.12 µM
CCn1nc(/C=C/c2ccccc2)nc2c(=O)n(C)c(=O)nc1-2	> 35.9 µM (inactive)
O=C(Nc1nc2cc3c(cc2s1)OCCO3)C1=COCCO1	inactive
CCCCC(=O)NC(c1ccc(Cl)cc1Cl)c1ccc2cccnc2c1O (stereo not drawn)	4.71 µM
C=CCn1c(C)cc(C(=O)COc2ccc(C)nc2[N+](=O)[O-])c1C	> 35.9 µM (inactive)
COc1ccc(-c2cn[nH]c2-c2ccc(OC)cc2O)cc1	2.89 µM
CCC(=O)c1ccc(O)c(CC=C(C)C)c1	8.77 µM
c1ccc(-c2nnc(-c3ccccn3)nc2NC2CCCCC2)cc1	3.94 µM
C=CCOn1c(C)c(C(C)=O)c2c3nonc3ccc21	4.12 µM
COc1cc2c(c(OC)c1OC)-c1ccc(SC)c(=O)cc1C(NC=O)CC2 (stereo not drawn)	inactive
CC(=O)NC(c1cc(Cl)c2cccnc2c1O)C(C)C (stereo not drawn)	4.54 µM
O=C(CC(Nc1ccc(Cl)cc1Cl)C(=O)O)c1ccccc1 (stereo not drawn)	> 35.9 µM (inactive)
Cc1ccc(-n2c(C)cc(C(=O)COc3cccnc3[N+](=O)[O-])c2C)cc1	> 35.9 µM (inactive)
